Converted amounts (≈) assume the structure as drawn. The source made the active and inactive calls. The rule behind the calls is not given here.
Tests used:
[1] = Stability in pH 7.4 phosphate buffer assessed as half life; format: physicochemical
Plasma [2] = test: Anticoagulant activity in rabbit platelet poor plasma assessed as fibrinogen level at 100 uM incubated for 3 mins by coagulometric analysis (reference value: 14.24 +/- 0.67 g/l); format: functional, Oryctolagus cuniculus
Plasma [3] = test: Anticoagulant activity in rabbit platelet poor plasma assessed as activated partial thromboplastin time at 100 uM incubated for 3 mins by coagulometric analysis (reference value: 19.13 +/- 0.54 sec); format: functional, Oryctolagus cuniculus
Plasma [4] = test: Anticoagulant activity in rabbit platelet poor plasma assessed as thrombin time at 100 uM incubated for 3 mins by coagulometric analysis (reference value: 12.58 +/- 0.76 sec); format: functional, Oryctolagus cuniculus
[5] = Lipophilicity, logP of compound; format: physicochemical; settings: octanol/water
Plasma [6] = test: Anticoagulant activity in rabbit platelet poor plasma assessed as prothrombin time at 100 uM incubated for 3 mins by coagulometric analysis (reference value: 4.32 +/- 0.28 sec); format: functional, Oryctolagus cuniculus
PC-12 = test: Antioxidant activity against H2O2-induced oxidative stress in rat PC12 cells assessed as cell viability preincubated for 24 hrs followed by H2O2 stimulation further incubated for 5 hrs by MTS assay; format: functional, cell-based
[7] = Solubility in water; format: physicochemical
Rattus norvegicus [8] = test: Neuroprotective activity in Sprague-Dawley rat middle cerebral artery occlusion-induced ischemia-reperfusion injury model assessed as decrease in irregular cell morphology of hippocampus CA1 at 0.35 to 1.40 mmol/kg, ig administered for 7 days by HE staining based assay; format: functional, organism-based
Rattus norvegicus [9] = test: Neuroprotective activity in ig dosed Sprague-Dawley rat model of middle cerebral artery occlusion-induced ischemia-reperfusion injury assessed as decrease in infarct area by TTC staining based assay; format: functional, organism-based
Rattus norvegicus [10] = test: Neuroprotective activity in Sprague-Dawley rat middle cerebral artery occlusion-induced ischemia-reperfusion injury model assessed as reduction in nuclear pyknosis of hippocampus CA1 at 0.35 to 1.40 mmol/kg, ig administered for 7 days by HE staining based assay; format: functional, organism-based
Rattus norvegicus [11] = test: Neuroprotective activity in Sprague-Dawley rat middle cerebral artery occlusion-induced ischemia-reperfusion injury model assessed as reduction in dissolution of hippocampus CA1 at 0.35 to 1.40 mmol/kg, ig administered for 7 days by HE staining based assay; format: functional, organism-based
Rattus norvegicus [12] = test: Neuroprotective activity in Sprague-Dawley rat middle cerebral artery occlusion-induced ischemia-reperfusion injury model assessed as reduction in hyperchromic of hippocampus CA1 at 0.35 to 1.40 mmol/kg, ig administered for 7 days by HE staining based assay; format: functional, organism-based
Rattus norvegicus [13] = test: Neuroprotective activity in Sprague-Dawley rat model of middle cerebral artery occlusion-induced ischemia-reperfusion injury assessed as decrease in infarct area at 0.7 mmol/kg, ig for 7 days by TTC staining based assay; format: functional, organism-based

Row | SMILES | half-life [1] [min] | Fibrinogen level (Plasma [2]) [g/L] | APTT (Plasma [3]) [s] | TT (Plasma [4]) [s] | logP [5] | PT (Plasma [6]) [s] | Activity (PC-12) | solubility [7] [µg/mL] | Activity (Rattus norvegicus [8]) | Activity (Rattus norvegicus [9]) | Activity (Rattus norvegicus [10]) | Activity (Rattus norvegicus [11]) | Activity (Rattus norvegicus [12]) | Activity (Rattus norvegicus [13])
1 | CC[C@H](C)[C@@H](NC(=O)OCc1nc(C)c(C)nc1C)C(=O)Oc1ccc(-c2cc(=O)c3c(O)c(O)c(O)cc3o2)cc1 | 3890 | 2.54 | 49.28 | 38.42 | 2.83 | 8.32 | Dose-dependent effect | 234 (≈ 406 µM) |  |  |  |  |  | 
2 | Cc1nc(C)c(COC(=O)NCC(=O)Oc2ccc(-c3cc(=O)c4c(O)c(O)c(O)cc4o3)cc2)nc1C | 858 |  |  |  | 2.1 |  | Dose-dependent effect | 454 (≈ 871 µM) |  |  |  |  |  | 
3 | Cc1nc(C)c(COC(=O)N[C@H](C)C(=O)Oc2ccc(-c3cc(=O)c4c(O)c(O)c(O)cc4o3)cc2)nc1C | 1670 | 2.68 | 48.21 | 36.25 | 1.53 | 7.72 | Dose-dependent effect | 799 (≈ 1490 µM) | Active | Dose-dependent effect | Active | Active | Active | 
4 | Cc1nc(C)c(C(=O)N[C@H](CC(C)C)C(=O)Oc2ccc(-c3cc(=O)c4c(O)c(O)c(O)cc4o3)cc2)nc1C | 4150 |  |  |  | 0.91 |  | Dose-dependent effect | 26 (≈ 47.5 µM) |  |  |  |  |  | 
5 | Cc1nc(C)c(C(=O)Oc2ccc(-c3cc(=O)c4c(O)c(O)c(O)cc4o3)cc2)nc1C | 906 |  |  |  | 3.01 |  | Dose-dependent effect | 12.1 (≈ 27.9 µM) |  |  |  |  |  | 
6 | Cc1nc(C)c(COC(=O)N[C@H](CC(C)C)C(=O)Oc2ccc(-c3cc(=O)c4c(O)c(O)c(O)cc4o3)cc2)nc1C | 3430 | 2.47 | 47.56 | 37.91 | 1.69 | 8.57 | Dose-dependent effect | 221 (≈ 382 µM) |  |  |  |  |  | 
7 | Cc1nc(C)c(C(=O)N[C@@H](C(=O)Oc2ccc(-c3cc(=O)c4c(O)c(O)c(O)cc4o3)cc2)C(C)C)nc1C | > 4320 |  |  |  | 1.38 |  | Dose-dependent effect | 240 (≈ 449 µM) |  |  |  |  |  | 
8 | Cc1nc(C)c(C)nc1C [LIGUSTRAZINE] |  | 3.28 | 39.24 | 25.36 | 1.26 | 6.13 | Dose-dependent effect | 4500 (≈ 33000 µM) |  |  |  |  |  | Active
9 | Cc1nc(C)c(COC(=O)CCCOc2ccc(-c3cc(=O)c4c(O)c(O)c(O)cc4o3)cc2)nc1C | 1190 |  |  |  | 1.48 |  | Dose-dependent effect | 356 (≈ 703 µM) |  |  |  |  |  | 
10 | Cc1nc(C)c(COC(=O)COc2ccc(-c3cc(=O)c4c(O)c(O)c(O)cc4o3)cc2)nc1C | 1280 |  |  |  | 2.39 |  | Dose-dependent effect | 30.6 (≈ 64 µM) |  |  |  |  |  | 
11 | Cc1nc(C)c(COC(=O)N[C@@H](C(=O)Oc2ccc(-c3cc(=O)c4c(O)c(O)c(O)cc4o3)cc2)C(C)C)nc1C | 2740 |  |  |  | 1.04 |  | Dose-dependent effect | 252 (≈ 448 µM) |  |  |  |  |  | 
12 | Cc1nc(C)c(C(=O)NCC(=O)Oc2ccc(-c3cc(=O)c4c(O)c(O)c(O)cc4o3)cc2)nc1C | > 4320 | 3.12 | 43.57 | 32.16 | 2.8 | 6.39 | Dose-dependent effect | 628 (≈ 1280 µM) |  |  |  |  |  | 
13 | O=c1cc(-c2ccc(O)cc2)oc2cc(O)c(O)c(O)c12 [SCUTELLAREIN] | 330 | 7.41 | 34.26 | 18.12 | 0.96 | 5.72 | Dose-dependent effect | 14.4 (≈ 50.3 µM) |  |  |  |  |  | Active
14 | Cc1nc(C)c(C(=O)N[C@@H](C(=O)N[C@@H](C)C(=O)Oc2ccc(-c3cc(=O)c4c(O)c(O)c(O)cc4o3)cc2)C(C)C)nc1C | 3100 |  |  |  | 1.98 |  | Dose-dependent effect | 856 (≈ 1420 µM) |  |  |  |  |  | 
